Assay results from ChEMBL document CHEMBL4014333, “Discovery of Small Molecules for Repressing Cap-Independent Translation of Human Vascular Endothelial Growth Factor (hVEGF) as Novel Antitumor Agents” (J Med Chem, 2017).
Calls of active or inactive are those of the source. The rule behind the calls is not given here.

Species on record: Homo sapiens
Experiment: Binding affinity to biotin-labeled human wild type internal ribosome entry site A RNA G-quadruplex by SPR analysis

Activity, active:
CN(C)CCCNc1c2ccccc2nc2c1oc1ccc(OCCN(C)C)cc12
CN1CCC(COc2ccc3oc4c(NCC(=O)NCC(=O)NC(CCCNC(=N)N)C(=O)O)c5ccccc5nc4c3c2)CC1 (stereo not drawn)
CN1CCC(COc2ccc3oc4c(NCC(=O)NCC(=O)NC(Cc5c[nH]cn5)C(=O)O)c5ccccc5nc4c3c2)CC1 (stereo not drawn)
CN(C)CCNC(=O)COc1ccc2oc3c(NCCN(C)C)c4ccccc4[n+](C)c3c2c1
COc1ccc2cc3[n+](cc2c1OCCCn1ccc(N)nc1=O)CCc1cc2c(cc1-3)OCO2
COc1ccc2cc3[n+](cc2c1NCCO)CCc1cc2c(cc1-3)OCO2
CN(C)CCCNc1c2ccccc2nc2c1oc1c(OCCN(C)C)cccc12
CN(C)CCCNc1c2ccccc2nc2c1oc1ccc(OCC3CCN(C)CC3)cc12
COc1ccc2cc3[n+](cc2c1OCCC[n+]1ccc(N(C)C)cc1)CCc1cc2c(cc1-3)OCO2
C[n+]1c2ccccc2c(NCCN2CCOCC2)c2oc3ccc(OCC(=O)NCCN4CCOCC4)cc3c21
CN1CCC(COc2ccc3oc4c(NCC(=O)NCC(=O)NC(CCCCN)C(=O)O)c5ccccc5nc4c3c2)CC1 (stereo not drawn)
COc1ccc2cc3[n+](cc2c1OCCN)CCc1cc2c(cc1-3)OCO2
C[n+]1c2ccccc2c(NCC(=O)NC(Cc2ccccc2)C(=O)NC(CCCNC(=N)N)C(=O)O)c2oc3ccccc3c21 (stereo not drawn)
CCN(CC)CCOc1ccc(Nc2nc(-c3ccccc3N)nc3ccccc23)cc1
C[n+]1c2ccccc2c(NCCCN2CCOCC2)c2oc3ccc(OCC(=O)NCCN4CCOCC4)cc3c21
C[n+]1c2ccccc2c(NCC(=O)NCC(=O)NC(Cc2c[nH]cn2)C(=O)O)c2oc3ccccc3c21 (stereo not drawn)
COc1ccc2cc3[n+](cc2c1OCCCCCC[n+]1ccccc1)CCc1cc2c(cc1-3)OCO2
COc1ccc2cc3[n+](cc2c1NCCN(C)C)CCc1cc2c(cc1-3)OCO2
COc1ccc2cc3[n+](cc2c1OCCC[n+]1ccccc1)CCc1cc2c(cc1-3)OCO2
COc1ccc2cc3[n+](cc2c1OCCCN)CCc1cc2c(cc1-3)OCO2
CN1CCC(COc2ccc3oc4c(NCC(=O)NC(Cc5c[nH]cn5)C(=O)NC(CCCNC(=N)N)C(=O)O)c5ccccc5nc4c3c2)CC1 (stereo not drawn)
CN(C)CCNc1c2ccccc2nc2c1oc1ccc(OCCN(C)C)cc12
CN1CCC(COc2ccc3oc4c(NCC(=O)NCC(=O)NC(CCCNC(=N)N)C(=O)NC(Cc5c[nH]c6ccccc56)C(=O)O)c5ccccc5nc4c3c2)CC1 (stereo not drawn)
CCN(CC)CCOc1ccc(Nc2nc(-c3ccccc3NC(=O)CCCl)nc3ccccc23)cc1
CN1CCC(COc2ccc3oc4c(NCC(=O)NCC(=O)NC(CCCNC(=N)N)C(=O)NC(Cc5ccccc5)C(=O)O)c5ccccc5nc4c3c2)CC1 (stereo not drawn)
CN1CCC(COc2ccc3oc4c(NCC(=O)NCC(=O)NC(CCCNC(=N)N)C(=O)NC(Cc5ccc(O)cc5)C(=O)O)c5ccccc5nc4c3c2)CC1 (stereo not drawn)
CN(C)CCCNc1c2ccccc2nc2c1oc1cc(OCCN(C)C)ccc12
COc1ccc2cc3[n+](cc2c1NCCN1CCOCC1)CCc1cc2c(cc1-3)OCO2
C[n+]1c2ccccc2c(NCCCN2CCOCC2)c2oc3ccc(OCC[N+]4(C)CCCCC4)cc3c21
CC(NC(=O)C(CCCNC(=N)N)NC(=O)CNC(=O)CNc1c2ccccc2nc2c1oc1ccc(OCC3CCN(C)CC3)cc12)C(=O)O (stereo not drawn)
COc1ccc2cc3[n+](cc2c1OCCCCC[n+]1ccccc1)CCc1cc2c(cc1-3)OCO2
COc1ccc2cc3[n+](cc2c1OCCC[n+]1cccc(F)c1)CCc1cc2c(cc1-3)OCO2
COc1ccc2cc3[n+](cc2c1NCCN1CCCCC1)CCc1cc2c(cc1-3)OCO2
